The text below walks through data of paper PMC11001683 (European Journal of Clinical Pharmacology, 2024).

A value given as a limit tells only on which side of the number the result lay.

By half-life is commonly meant the time in which the quantity being followed falls by half.

Series [1] is described as follows: Allometric scaling prediction of ACD855 elimination half-life in man. More on the design: species or system human. As for the experimental part: (§1) The clinical efficacy, safety, and pharmacokinetics (PK) of ACD855 have been evaluated in various domestic animals for the use as a veterinary drug. […] Based on pharmacology studies in rodents and safety studies in rat and dog, the first oral dose in an initiated Phase I single ascending dose (SAD) study (EudraCT No. 2018-002320-16), in healthy volunteers was set to 1 mg. […] The study was prematurely terminated after interim PK analysis of the first cohort, and long-term follow-up of the dosed subjects was performed.

For series [2] the following is noted: mice; cited from earlier work.
Details of series [3]: method as in PMID 37394539. The note with it: cited from earlier work.
Series [4] is described as follows: ACD855 Phase I SAD study, cohort 1, plasma pharmacokinetics. Conditions: human, 1 mg oral. It is filed as in vivo. How it is done: as §1
Series [5] is described as follows: ACD855 mutagenic/genotoxic potential. How it is done:
as §1

Series [6] is described as follows: ACD855 clinical signs in dogs. It is filed as in vivo.

With `Cc1cc(-n2c(=O)[nH]c(=O)n(C)c2=O)ccc1Oc1ccc(S(=O)(=O)C(F)(F)F)cc1` [ACD855, Ponazuril], the “predicted elimination half-life in man” value in series [1] is reported as 4.6 days. The “effect in preclinical in vivo cognition models” value in series [2] is recorded as “pro-cognitive effects”. In series [3], the “effect in the forced swim test model” value is recorded as “anti-depressant-like effects”. For the same molecule, the concentration at 280 days in series [4] (all subjects but one, detection limit 1 ng/mL, read-out: plasma level at 280 days) was greater than 1 ng/mL. For the same molecule, the half-life in series [4] (cohort 1, healthy volunteers, read-out: elimination half-life in plasma in humans, average (converted)) is 68 days. In series [5], the “mutagenic or genotoxic potential” value is recorded as “no indication of any mutagenic or genotoxic potential”. For the same molecule, in series [6], the “notable clinical signs in dogs” value was “gastrointestinal disturbance”.
